Data on 9 cell lines can be found in the supplement of paper PMC10307832.

Holding throughout (assay): relative viability (nuclei count vs DMSO), 5 days (fraction); higher = more cells survive
Compound in the test “Wnt-C59 + Bortezomib”: CC1=NC=CC(=C1)C2=CC=C(C=C2)CC(=O)NC3=CC=C(C=C3)C4=CN=CC=C4 [Wnt-C59] + CC(C)C[C@H](NC(=O)[C@H](Cc1ccccc1)NC(=O)c1cnccn1)B(O)O [Bortezomib] (partner 0.002 µM)
In outline: (§1)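 Lung cancer cell lines were pin-tool dosed in 1536-well plates on the day after seeding, with either a lone drug or a fixed anchor-drug dose plus five library-drug doses (not always all listed) in √10 steps. Nuclei were counted on 4× images after 5 days. Relative viability is the ratio of treated-well to vehicle-well nuclei counts, with each value a median of duplicate plates.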

Compound in the test “Wnt-C59 + Linsitinib”: CC1=NC=CC(=C1)C2=CC=C(C=C2)CC(=O)NC3=CC=C(C=C3)C4=CN=CC=C4 [Wnt-C59] + C[C@]1(O)C[C@@H](c2nc(-c3ccc4ccc(-c5ccccc5)nc4c3)c3c(N)nccn32)C1 [Linsitinib] (partner 1 µM)
The procedure, abridged:
as §1

Compound in the test “Lapatinib + Linsitinib”: CS(=O)(=O)CCNCc1ccc(-c2ccc3ncnc(Nc4ccc(OCc5cccc(F)c5)c(Cl)c4)c3c2)o1 [Lapatinib] + C[C@]1(O)C[C@@H](c2nc(-c3ccc4ccc(-c5ccccc5)nc4c3)c3c(N)nccn32)C1 [Linsitinib] (partner 1 µM)
The procedure, abridged:
as §1

Compound in the test “Wnt-C59 + Navitoclax”: CC1=NC=CC(=C1)C2=CC=C(C=C2)CC(=O)NC3=CC=C(C=C3)C4=CN=CC=C4 [Wnt-C59] + CC1(C)CCC(c2ccc(Cl)cc2)=C(CN2CCN(c3ccc(C(=O)NS(=O)(=O)c4ccc(N[C@H](CCN5CCOCC5)CSc5ccccc5)c(S(=O)(=O)C(F)(F)F)c4)cc3)CC2)C1 [Navitoclax] (partner 0.5 µM)
The procedure, abridged:
as §1

In the case of Calu-6, the relative viability in the test with Wnt-C59 + Bortezomib (first compound 0.001 µM) is 0.924; with Wnt-C59 + Bortezomib (first compound 0.01 µM) it was 0.99; in the test with Wnt-C59 + Bortezomib (first compound 0.03162 µM), 1.05; with Wnt-C59 + Bortezomib (first compound 0.1 µM), 1.07; with Wnt-C59 + Linsitinib (first compound 0.001 µM) it was 0.89; in the test with Wnt-C59 + Linsitinib (first compound 0.01 µM) it was 0.9. Moreover, the relative viability in the test with Wnt-C59 + Linsitinib (first compound 0.03162 µM) was determined as 0.987; with Wnt-C59 + Linsitinib (first compound 0.1 µM), 0.955; with Lapatinib + Linsitinib (first compound 0.02 µM) it was 0.891; with Lapatinib + Linsitinib (first compound 0.06325 µM), 0.953; in the test with Lapatinib + Linsitinib (first compound 0.2 µM), 0.947; with Lapatinib + Linsitinib (first compound 0.6325 µM), 0.954. For the same cell line, the relative viability stood at 0.848 with Lapatinib + Linsitinib (first compound 2 µM); 0.801 with Wnt-C59 + Navitoclax (first compound 0.001 µM); 0.97 in the test with Wnt-C59 + Navitoclax (first compound 0.01 µM); 0.757 in the test with Wnt-C59 + Navitoclax (first compound 0.03162 µM); 0.787 with Wnt-C59 + Navitoclax (first compound 0.1 µM).

On to ChaGo-K-1, for which the relative viability came to 0.767 in the test with Wnt-C59 + Bortezomib (first compound 0.001 µM); 0.892 in the test with Wnt-C59 + Bortezomib (first compound 0.03162 µM); 1.16 in the test with Wnt-C59 + Bortezomib (first compound 0.1 µM); 0.657 in the test with Wnt-C59 + Navitoclax (first compound 0.001 µM); 1.07 with Wnt-C59 + Navitoclax (first compound 0.03162 µM); 1.18 with Wnt-C59 + Navitoclax (first compound 0.1 µM).

In the case of EBC-1, the relative viability turned out to be 0.638 with Wnt-C59 + Bortezomib (first compound 0.001 µM); 0.617 with Wnt-C59 + Bortezomib (first compound 0.01 µM); 0.394 with Wnt-C59 + Bortezomib (first compound 0.03162 µM); 0.591 in the test with Wnt-C59 + Bortezomib (first compound 0.1 µM); 0.927 in the test with Wnt-C59 + Linsitinib (first compound 0.001 µM); 0.912 in the test with Wnt-C59 + Linsitinib (first compound 0.01 µM). For the same cell line, the relative viability was determined as 0.925 in the test with Wnt-C59 + Linsitinib (first compound 0.03162 µM); 0.814 in the test with Wnt-C59 + Linsitinib (first compound 0.1 µM); 0.904 in the test with Lapatinib + Linsitinib (first compound 0.02 µM); 0.883 with Lapatinib + Linsitinib (first compound 0.06325 µM); 0.888 in the test with Lapatinib + Linsitinib (first compound 0.2 µM); 0.938 with Lapatinib + Linsitinib (first compound 0.6325 µM). The relative viability is 0.886 with Lapatinib + Linsitinib (first compound 2 µM); 0.378 in the test with Wnt-C59 + Navitoclax (first compound 0.001 µM); 0.405 in the test with Wnt-C59 + Navitoclax (first compound 0.01 µM); 0.431 with Wnt-C59 + Navitoclax (first compound 0.03162 µM); 0.513 with Wnt-C59 + Navitoclax (first compound 0.1 µM).

EKVX: the relative viability with Wnt-C59 + Bortezomib (first compound 0.001 µM) was 1; in the test with Wnt-C59 + Bortezomib (first compound 0.01 µM) it was 0.928; with Wnt-C59 + Bortezomib (first compound 0.03162 µM), 1.06; in the test with Wnt-C59 + Bortezomib (first compound 0.1 µM) it was 0.895; with Wnt-C59 + Linsitinib (first compound 0.001 µM), 1.07; with Wnt-C59 + Linsitinib (first compound 0.01 µM) it was 0.846. The relative viability in the test with Wnt-C59 + Linsitinib (first compound 0.03162 µM) was 1.01; with Wnt-C59 + Linsitinib (first compound 0.1 µM) it was 0.757; with Lapatinib + Linsitinib (first compound 0.02 µM), 0.922; in the test with Lapatinib + Linsitinib (first compound 0.06325 µM), 0.757; in the test with Lapatinib + Linsitinib (first compound 0.2 µM), 0.956; with Lapatinib + Linsitinib (first compound 0.6325 µM), 0.579. Further, the relative viability with Lapatinib + Linsitinib (first compound 2 µM) is 0.179; with Wnt-C59 + Navitoclax (first compound 0.001 µM), 0.991; with Wnt-C59 + Navitoclax (first compound 0.01 µM) it was 0.87; with Wnt-C59 + Navitoclax (first compound 0.03162 µM), 0.896; with Wnt-C59 + Navitoclax (first compound 0.1 µM), 0.788.

With EMC-BAC-2, the relative viability with Wnt-C59 + Bortezomib (first compound 0.001 µM) worked out at 0.913; with Wnt-C59 + Bortezomib (first compound 0.01 µM), 0.926; in the test with Wnt-C59 + Bortezomib (first compound 0.03162 µM), 0.998; with Wnt-C59 + Bortezomib (first compound 0.1 µM) it was 0.943; with Wnt-C59 + Linsitinib (first compound 0.001 µM) it was 0.736; with Wnt-C59 + Linsitinib (first compound 0.01 µM), 0.642. For the same cell line, the relative viability with Wnt-C59 + Linsitinib (first compound 0.03162 µM) amounted to 0.741; with Wnt-C59 + Linsitinib (first compound 0.1 µM) it was 0.709; with Lapatinib + Linsitinib (first compound 0.02 µM), 0.755; in the test with Lapatinib + Linsitinib (first compound 0.06325 µM) it was 0.732; in the test with Lapatinib + Linsitinib (first compound 0.2 µM) it was 0.698; in the test with Lapatinib + Linsitinib (first compound 0.6325 µM), 0.623. Moreover, the relative viability in the test with Lapatinib + Linsitinib (first compound 2 µM) is 0.563; with Wnt-C59 + Navitoclax (first compound 0.001 µM), 1.11; in the test with Wnt-C59 + Navitoclax (first compound 0.01 µM) it was 0.97; with Wnt-C59 + Navitoclax (first compound 0.03162 µM), 1.16; with Wnt-C59 + Navitoclax (first compound 0.1 µM), 0.969.

With EPLC-272H, the relative viability was found to be 1 with Wnt-C59 + Bortezomib (first compound 0.001 µM); 0.934 with Wnt-C59 + Bortezomib (first compound 0.01 µM); 1.03 with Wnt-C59 + Bortezomib (first compound 0.03162 µM); 0.877 in the test with Wnt-C59 + Bortezomib (first compound 0.1 µM); 1.29 with Wnt-C59 + Linsitinib (first compound 0.001 µM); 1.23 in the test with Wnt-C59 + Linsitinib (first compound 0.01 µM). Further, the relative viability with Wnt-C59 + Linsitinib (first compound 0.03162 µM) amounted to 1.08; in the test with Wnt-C59 + Linsitinib (first compound 0.1 µM), 1.15; with Lapatinib + Linsitinib (first compound 0.06325 µM) it was 0.988; with Lapatinib + Linsitinib (first compound 0.2 µM), 1.11; with Lapatinib + Linsitinib (first compound 0.6325 µM) it was 0.959; in the test with Lapatinib + Linsitinib (first compound 2 µM), 1.01. Also, the relative viability in the test with Wnt-C59 + Navitoclax (first compound 0.001 µM) turned out to be 1.09; with Wnt-C59 + Navitoclax (first compound 0.01 µM) it was 1; with Wnt-C59 + Navitoclax (first compound 0.03162 µM), 1.06; with Wnt-C59 + Navitoclax (first compound 0.1 µM), 1.21.

Consider H3255, for which the relative viability in the test with Wnt-C59 + Bortezomib (first compound 0.001 µM) came to 0.78; in the test with Wnt-C59 + Bortezomib (first compound 0.01 µM) it was 0.823; with Wnt-C59 + Bortezomib (first compound 0.03162 µM), 0.769; with Wnt-C59 + Bortezomib (first compound 0.1 µM) it was 0.912; with Wnt-C59 + Linsitinib (first compound 0.001 µM) it was 1.01; with Wnt-C59 + Linsitinib (first compound 0.01 µM), 0.962. For the same cell line, the relative viability with Wnt-C59 + Linsitinib (first compound 0.03162 µM) stood at 1.02; with Wnt-C59 + Linsitinib (first compound 0.1 µM) it was 0.866; with Lapatinib + Linsitinib (first compound 0.02 µM), 0.92; with Lapatinib + Linsitinib (first compound 0.06325 µM), 0.767; with Lapatinib + Linsitinib (first compound 0.2 µM), 0.783; in the test with Lapatinib + Linsitinib (first compound 0.6325 µM), 0.693. Moreover, the relative viability with Lapatinib + Linsitinib (first compound 2 µM) amounted to 0.196; in the test with Wnt-C59 + Navitoclax (first compound 0.001 µM), 0.573; with Wnt-C59 + Navitoclax (first compound 0.01 µM), 0.502; in the test with Wnt-C59 + Navitoclax (first compound 0.03162 µM), 0.688; in the test with Wnt-C59 + Navitoclax (first compound 0.1 µM), 0.558.

With HARA, the relative viability turned out to be 1.1 with Wnt-C59 + Bortezomib (first compound 0.001 µM); 1.01 in the test with Wnt-C59 + Bortezomib (first compound 0.01 µM); 1.19 with Wnt-C59 + Bortezomib (first compound 0.03162 µM); 1.15 in the test with Wnt-C59 + Bortezomib (first compound 0.1 µM); 1.02 with Wnt-C59 + Linsitinib (first compound 0.001 µM); 0.865 with Wnt-C59 + Linsitinib (first compound 0.01 µM). The relative viability with Wnt-C59 + Linsitinib (first compound 0.03162 µM) turned out to be 1.16; with Wnt-C59 + Linsitinib (first compound 0.1 µM) it was 0.899; with Lapatinib + Linsitinib (first compound 0.02 µM), 0.782; with Lapatinib + Linsitinib (first compound 0.06325 µM), 0.686; with Lapatinib + Linsitinib (first compound 0.2 µM), 0.808; with Lapatinib + Linsitinib (first compound 0.6325 µM) it was 0.755. For the same cell line, the relative viability with Lapatinib + Linsitinib (first compound 2 µM) worked out at 0.243; in the test with Wnt-C59 + Navitoclax (first compound 0.001 µM), 1.18; with Wnt-C59 + Navitoclax (first compound 0.01 µM), 1.17; in the test with Wnt-C59 + Navitoclax (first compound 0.03162 µM), 1.17; with Wnt-C59 + Navitoclax (first compound 0.1 µM), 1.13.

HCC-15: the relative viability came out at 1.01 with Wnt-C59 + Bortezomib (first compound 0.001 µM); 1.02 with Wnt-C59 + Bortezomib (first compound 0.01 µM); 1.03 with Wnt-C59 + Bortezomib (first compound 0.03162 µM); 0.994 in the test with Wnt-C59 + Bortezomib (first compound 0.1 µM); 0.922 with Wnt-C59 + Linsitinib (first compound 0.001 µM); 0.96 with Wnt-C59 + Linsitinib (first compound 0.01 µM). In addition, the relative viability in the test with Wnt-C59 + Linsitinib (first compound 0.03162 µM) amounted to 0.856; with Wnt-C59 + Linsitinib (first compound 0.1 µM) it was 0.928; with Lapatinib + Linsitinib (first compound 0.06325 µM), 0.857; in the test with Lapatinib + Linsitinib (first compound 0.2 µM), 0.954; with Lapatinib + Linsitinib (first compound 0.6325 µM), 0.814; with Lapatinib + Linsitinib (first compound 2 µM), 0.599. The relative viability is 0.799 with Wnt-C59 + Navitoclax (first compound 0.001 µM), 0.708 with Wnt-C59 + Navitoclax (first compound 0.01 µM), 0.7 with Wnt-C59 + Navitoclax (first compound 0.03162 µM) and 0.76 in the test with Wnt-C59 + Navitoclax (first compound 0.1 µM).
